Reference: patent US7750043B2, “Modified retinoid compounds and their uses” (Wisconsin Alumni Research Foundation, priority 2003, dated 2010)
Entries after “also recorded” stand apart in the source; their conditions may differ.

Experiments:
[1] = system: vitamin A-deficient rats; assay: Growth of vitamin A-deficient rats given the compounds orally in Wesson oil; type: in vivo, rat; conditions: for growth of vitamin A-deficient rats compared to vehicle control / growth of vitamin A-deficient rats, comparison between atRA and its esters: 83 pmole/day, FIG. 4; for growth of vitamin A-deficient rats compared to vehicle control / growth of vitamin A-deficient rats, comparison between atRA and its esters / growth (weight change) of vitamin A-deficient rats compared to atRA / growth response of vitamin A-deficient rats compared to atRA: 5 days; for in vivo activity relative to atRA (growth support): oral, vitamin A-deficient rats, overall estimate; for growth (weight change) of vitamin A-deficient rats compared to atRA: 83 pmoles/day oral in Wesson oil, FIG. 1; for growth response of vitamin A-deficient rats compared to atRA: 166 pmoles/day (50 μg/day atRA or 59.5 μg/day t-butyl-RA), FIG. 2
Text: The first test was to determine if the esterified compounds when given orally could restore normal growth of vitamin A-deficient rats. For this study, Sprague-Dawley, weanling rats were obtained from Harlan (Indianapolis, Ind.). They were fed the purified vitamin A-deficient diet previously described (Suda et al., 1970, J. Nutr. 100:1049-152) supplemented with vitamins D, E and K (White et al., 1998, Proc. Natl. Acad. Sci. USA 95:13459-13464). When the animals stopped growing and began to lose weight, they were administered the indicated doses per day dissolved in Wesson oil. Controls were given the Wesson oil alone (vehicle group). The weight change over the 5-day study period was analyzed by ANOVA, followed by a matrix of pairwise comparison probabilities using four post-hoc tests when the overall P value was less than 0.05. The post-hoc comparison tests included: Turkey HSD multiple comparisons, Sheffe test, Fisher's least-significant-difference test and the Bonferroni adjustment test.
Weanling male rats were obtained from the Harlan Company and were housed individually in hanging wire cages and fed the vitamin A-deficient diet described previously (Suda et al., 1970). At approximately 70 days of age, the animals began to show a leveling off of growth and began to show weight loss. At this time, they were used for the following studies: They were given either 0.1 ml of Wesson oil (vehicle) or the indicated dose of atRA dissolved in the vehicle or one of the derivatives at the indicated dose dissolved in the vehicle. Body weights were recorded daily and plotted as cumulative weight gain or loss over the study period as indicated on the graphs. A daily dose of 83 pmoles (25 μg/day) of atRA is near the minimum amount needed to produce normal growth in […] rats as compared to the vehicle controls that continue to lose weight (FIG. 1). […] When the dose was increased to 50 μg/day of atRA or 59.5 μg/day of the t-butyl derivative, as expected, the growth response was identical.

[2] = system: normal male rats; assay: Acute toxicity of atRA versus t-butyl-RA in normal male rats; type: in vivo, rat; conditions: for body weight change / apparent toxicity: second study, 1 mmole/kg/day for 5 days, FIG. 6
Method: Two independent toxicity studies were carried out with the t-butyl-RA derivative. […] However, the difference in testes weights between the atRA and t-butyl-RA groups was not statistically significant due to rather large biological variability.
We next examined the acute toxicity of the t-butyl derivative as compared to the atRA derivative in two independent trails. In these experiments, normal male rats weighing approximately 250-300 grams were used. They were individually housed in cages and given Purina lab chow as well as water ad libitum. […] This is an extremely large dose, and represents at least 3,600 times the amount of the t-butyl derivative needed to support a physiological growth response in vitamin A-deficient rats. […] Another indication of toxicity is testes weight as illustrated in FIG. 7.

[3] = system: pregnant rats (embryos); conditions: female, Sprague Dawley, rat, in vivo, 18.5 embryonic day
Text: Teratogenic activity of atRA is a serious drawback in its therapeutic potential. […] The results of this experiment illustrate that atRA is, indeed, teratogenic and that the t-butyl derivative shares this liability, but only when given at a dose of 10 times higher than that of atRA. Thus, there is a larger window of safety when using the t-butyl-RA derivative when compared to atRA.
In this experiment, 19 female rats were obtained from Sprague Dawley and were individually housed in cages and given purina chow as well as water ad libitum. After approximately two weeks of acclimation to the animal facility, the females were placed with normal males on the same diet, between 6:00 and 9:00 pm. The following morning, the females were checked for vaginal plugs indicating fertilization. Vaginal smears were then checked for sperm and when shown to be positive, the pregnant rat was placed in the study. At embryonic day 12.3 between 9:00 and 10:00 in the morning, the rats received the following treatments given as a bolus dose in oil orally. Four groups of rats received the vehicle; four received 0.1 mmole/kg (30 mg/kg) atRA in the oil vehicle; another group received an equal molar amount (35.7 mg/kg) of t-butyl-RA; and a final group received a ten-fold higher dose (357 mg/kg) of t-butyl-RA. The embryos were removed by cesarean section on day 18.5 and weighed as well as checked for cleft palette. […]

## CC1=C(/C=C/C(C)=C/C=C/C(C)=C/C(=O)O[C@H]2CC[C@@]3(C)C(=CCC4C3CC[C@@]3(C)C4CC[C@@H]3[C@H](C)CCCC(C)C)C2)C(C)(C)CCC1 (stereo partly drawn) [cholesterol ester, all-trans-retinoic acid cholesterol ester]
[1]
  growth of vitamin A-deficient rats compared to vehicle control: significantly enhanced growth compared to vehicle control animals; also recorded: clearly much improved over the vehicle control
  growth of vitamin A-deficient rats, comparison between atRA and its esters: less effective
  in vivo activity relative to atRA (growth support): less effective; also recorded: one-third

## CC1=C(/C=C/C(C)=C/C=C/C(C)=C/C(=O)OC(C)(C)C(C)(C)O)C(C)(C)CCC1 [pinacol ester, all-trans-retinoic acid pinacol ester]
[1]
  growth of vitamin A-deficient rats compared to vehicle control: significantly enhanced growth compared to vehicle control animals
  growth of vitamin A-deficient rats, comparison between atRA and its esters: nearly equivalent to atRA
  in vivo activity relative to atRA (growth support): nearly as active as atRA

## CC1=C(/C=C/C(C)=C/C=C/C(C)=C/C(=O)OC(C)(C)C)C(C)(C)CCC1 [t-butyl-RA, all-trans-retinoic acid tert-butyl ester]
[1]
  growth (weight change) of vitamin A-deficient rats compared to atRA: did not differ significantly from that of the group fed an equal molar amount of atRA
  growth response of vitamin A-deficient rats compared to atRA: equivalent
  in vivo activity relative to atRA (growth support): equal to atRA in potency and efficacy
[1]; listed as t-butyl derivative
  growth (weight change) of vitamin A-deficient rats compared to atRA: did not differ from that of atRA
  growth response of vitamin A-deficient rats compared to atRA: identical
  in vivo activity relative to atRA (growth support): as active as atRA
[1]; listed as t-butyrate ester
  in vivo activity relative to atRA (growth support): as active in vivo when given orally as is atRA
[2]; 1 mmole/kg/day (357 mg/kg/day) versus growth dose in vitamin A-deficient rats
  non-toxic dose as multiple of the amount needed to support a physiological growth response: at least 3,600 times
[2]; 1 mmole/kg/day, FIG. 7, listed as t-butyl derivative
  testes weight: no such indication; also recorded: similar
[2]; first study, 1 mmole/kg/day (300 mg/kg/day atRA, 357 mg/kg/day t-butyl-RA), 7 days, FIG. 5
  body weight change: continued growth; also recorded: did not cause a weight loss
[2]; first study, 1 mmole/kg/day, 7 days, FIG. 5
  other signs of toxicity: no other externally obvious toxicity
[2]
  body weight change / apparent toxicity: no apparent toxicity
[2]; listed as t-butyl derivative
  body weight change / apparent toxicity: normal growth
[3]
  dose relative to atRA required to produce equivalent teratogenic effects: 10
  times less teratogenic than atRA: approximately 10 times

## CC1=C(/C=C/C(C)=C/C=C/C(C)=C/C(=O)O)C(C)(C)CCC1 [atRA, all-trans-retinoic acid, reference compound]
[1]
  growth of vitamin A-deficient rats, comparison between atRA and its esters: superior to that of the cholesterol ester-fed group
